Here are results for four molecules from ChEMBL document CHEMBL4038335, “Neuroactive Steroids. 2. 3α-Hydroxy-3β-methyl-21-(4-cyano-1H-pyrazol-1'-yl)-19-nor-5β-pregnan-20-one (SAGE-217): A Clinical Next Generation Neuroactive Steroid Positive Allosteric Modulator of the (γ-Aminobutyric Acid)A Receptor” (J Med Chem, 2017).

Usually IC50 stands for the midpoint of a concentration-inhibition curve. Usually EC50 stands for the concentration that produces a half-maximal response. For orientation: Emax means the size of the effect at its maximum, as opposed to the concentration needed. By bioavailability is commonly meant the share of a dose that reaches the circulation, judged against a reference dose that is usually intravenous. Lower therefore signals poor availability. As usually defined, the logD is the decadic logarithm of the distribution of all forms, ionised or not, between an organic phase and buffer at a given pH.

A short description of data set [1]: Displacement of [35S]TBPS from GABA-A receptor in Sprague-Dawley rat cerebral cortex cell membranes after 90 mins in presence of GABA by liquid scintillation counting. On the technique in general: Displacement assays read how much labelled ligand stays bound in the presence of the test substance.
In data set [2] the target is T1, GABA-A receptor; alpha-1/beta-2/gamma-2 (Homo sapiens, UniProt P14867+P18507+P47870).
T1 sequence (P14867 whole entry): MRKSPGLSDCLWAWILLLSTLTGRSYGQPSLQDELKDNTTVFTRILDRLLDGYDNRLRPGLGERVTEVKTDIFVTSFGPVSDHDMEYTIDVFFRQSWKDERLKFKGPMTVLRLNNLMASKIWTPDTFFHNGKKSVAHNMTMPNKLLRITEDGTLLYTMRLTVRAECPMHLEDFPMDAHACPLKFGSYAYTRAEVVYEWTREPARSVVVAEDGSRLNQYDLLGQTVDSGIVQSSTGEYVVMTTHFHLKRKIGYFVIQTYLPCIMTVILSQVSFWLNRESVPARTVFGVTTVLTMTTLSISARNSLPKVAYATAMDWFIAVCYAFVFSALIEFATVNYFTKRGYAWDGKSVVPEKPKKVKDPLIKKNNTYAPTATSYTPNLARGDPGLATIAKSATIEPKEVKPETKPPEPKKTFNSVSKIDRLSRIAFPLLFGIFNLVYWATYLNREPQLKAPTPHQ
T1 sequence (P47870 whole entry): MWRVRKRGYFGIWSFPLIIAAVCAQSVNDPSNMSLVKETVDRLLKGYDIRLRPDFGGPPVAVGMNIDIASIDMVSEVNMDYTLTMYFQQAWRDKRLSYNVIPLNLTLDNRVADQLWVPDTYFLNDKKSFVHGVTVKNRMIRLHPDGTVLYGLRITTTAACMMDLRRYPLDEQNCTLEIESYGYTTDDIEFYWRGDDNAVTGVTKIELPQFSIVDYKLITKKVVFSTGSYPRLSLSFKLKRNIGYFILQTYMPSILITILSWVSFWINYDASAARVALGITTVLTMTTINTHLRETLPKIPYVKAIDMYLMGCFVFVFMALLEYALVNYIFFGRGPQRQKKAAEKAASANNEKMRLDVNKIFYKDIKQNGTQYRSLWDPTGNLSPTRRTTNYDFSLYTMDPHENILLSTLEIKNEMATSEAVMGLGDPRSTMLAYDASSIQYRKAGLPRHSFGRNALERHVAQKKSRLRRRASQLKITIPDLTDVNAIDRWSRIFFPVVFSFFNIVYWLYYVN
T1 sequence (P18507 whole entry): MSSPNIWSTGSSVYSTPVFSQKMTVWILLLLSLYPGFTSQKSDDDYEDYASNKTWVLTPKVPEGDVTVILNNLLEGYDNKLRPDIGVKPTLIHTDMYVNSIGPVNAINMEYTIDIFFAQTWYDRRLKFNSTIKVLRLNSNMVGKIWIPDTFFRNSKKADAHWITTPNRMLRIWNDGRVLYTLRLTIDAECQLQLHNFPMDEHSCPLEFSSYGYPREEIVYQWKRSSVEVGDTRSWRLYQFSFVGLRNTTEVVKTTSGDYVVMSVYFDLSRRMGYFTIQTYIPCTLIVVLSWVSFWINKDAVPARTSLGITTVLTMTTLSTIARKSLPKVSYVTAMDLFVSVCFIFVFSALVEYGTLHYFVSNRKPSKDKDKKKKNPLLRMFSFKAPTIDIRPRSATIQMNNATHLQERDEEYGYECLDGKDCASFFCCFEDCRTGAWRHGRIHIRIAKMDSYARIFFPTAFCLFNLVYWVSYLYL
The experiment in a line: Positive allosteric modulation of GABAA receptor alpha1beta2gamma2 (unknown origin) expressed in mouse LTK cells assessed as potentiation of GABA-mediated increase in channel current under holding potential at -80 mV preincubated for 30 secs followed by GABA stimulation for 2 secs by automated patch clamp assay. Format: cell-based. In general terms: Patch clamp records ionic current or voltage across a cell membrane.

The target of data set [3] is GABA-A receptor; alpha-1/beta-2/gamma-2 (Homo sapiens) (UniProt P14867+P47870+P18507). As to the kind of experiment: Positive allosteric modulation of GABAA receptor alpha1beta2gamma2 (unknown origin) expressed in mouse LTK cells assessed as potentiation of GABA-mediated increase in channel current under holding potential at -80 mV at 0.01 to 10 uM preincubated for 30 secs followed by GABA stimulation for 2 secs by automated patch clamp assay relative to GABA. The class given is cell-based.

Data set [4] concerns the target Gamma-aminobutyric acid receptor subunit alpha-4/beta3/delta (Homo sapiens, UniProt O14764+P28472+P48169). The experiment in a line: Positive allosteric modulation of GABAA receptor alpha4beta3delta (unknown origin) expressed in CHO cells assessed as potentiation of GABA-mediated increase in channel current under holding potential at -80 mV preincubated for 30 secs followed by GABA stimulation for 2 secs by manual patch clamp assay. The class given is cell-based.

The target in data set [5] is GABA-A receptor alpha-4/beta-3/delta (Homo sapiens, UniProt P28472+P48169+). The experiment in a line: Positive allosteric modulation of GABAA receptor alpha4beta3delta (unknown origin) expressed in CHO cells assessed as potentiation of GABA-mediated increase in channel current under holding potential at -80 mV at 0.01 to 10 uM preincubated for 30 secs followed by GABA stimulation for 2 secs by manual patch clamp assay relative to GABA. Format: cell-based. The note with it: 2 s.

Data set [6] can be described thus: Thermodynamic aqueous solubility of compound at 10 uM sonicated for 1 min followed by incubation for 1 hr by HPLC-MS/MS. The class given is physicochemical. The settings on record: buffer; read-out: Therm_solubility.
A short description of data set [7]: Clearance in human hepatic microsomes at 10 uM preincubated for 5 mins followed by NADPH addition measured over 60 mins by HPLC-MS/MS analysis. The class given is ADME, Microsome. The settings on record: liver microsomes. In general terms: Liver microsomes are vesicles of endoplasmic reticulum, rich in cytochrome P450 enzymes.
Data set [8] in a line: Clearance in rat hepatic microsomes at 10 uM preincubated for 5 mins followed by NADPH addition measured over 60 mins by HPLC-MS/MS analysis. The class given is ADME, Microsome. The note with it: liver microsomes.
A short description of data set [9]: Clearance in mouse hepatic microsomes at 10 uM preincubated for 5 mins followed by NADPH addition measured over 60 mins by HPLC-MS/MS analysis. Format: ADME, Microsome. The settings on record: liver microsomes.
Data set [10] in a line: Clearance in CD1 mouse at 5 mg/kg, iv or 20 mg/kg, po measured up to 8 hrs post dose by LC/MS-MS analysis. The settings on record: in vivo. The class given is ADME, organism-based.
The nature of data set [11]: Oral bioavailability in Sprague-Dawley rat at 20 mg/kg measured up to 8 hrs post dose by LC/MS-MS analysis. The class given is ADME, organism-based. The settings on record: in vivo.
Data set [12] is described as follows: Oral bioavailability in CD1 mouse at 20 mg/kg measured up to 8 hrs post dose by LC/MS-MS analysis. The settings on record: in vivo. Format: ADME, organism-based.
Data set [13] in a line: Ratio of drug level in Sprague-Dawley rat brain to plasma at 5 mg/kg, iv measured at 30 mins post dose by LC/MS-MS analysis. The class given is ADME, organism-based. The note with it: read-out: BPR.
Data set [14] is described as follows: Ratio of drug level in CD1 mouse brain to plasma at 5 mg/kg, iv measured at 30 mins post dose by LC/MS-MS analysis. The class given is ADME, organism-based. The note with it: read-out: BPR.
A short description of data set [15]: Lipophilicity, logD of compound at 20 uM at pH 7.4 by HPLC/MS-MS analysis. The class given is physicochemical. The note with it: buffer.
Data set [16] in a line: Clearance in Sprague-Dawley rat at 5 mg/kg, iv or 20 mg/kg, po measured up to 8 hrs post dose by LC/MS-MS analysis. The note with it: in vivo. Format: ADME, organism-based.

In brackets after ≈: the same amount, converted by molar mass.

GABA-A receptor alpha-4/beta-3/delta, sequence (P28472 whole entry): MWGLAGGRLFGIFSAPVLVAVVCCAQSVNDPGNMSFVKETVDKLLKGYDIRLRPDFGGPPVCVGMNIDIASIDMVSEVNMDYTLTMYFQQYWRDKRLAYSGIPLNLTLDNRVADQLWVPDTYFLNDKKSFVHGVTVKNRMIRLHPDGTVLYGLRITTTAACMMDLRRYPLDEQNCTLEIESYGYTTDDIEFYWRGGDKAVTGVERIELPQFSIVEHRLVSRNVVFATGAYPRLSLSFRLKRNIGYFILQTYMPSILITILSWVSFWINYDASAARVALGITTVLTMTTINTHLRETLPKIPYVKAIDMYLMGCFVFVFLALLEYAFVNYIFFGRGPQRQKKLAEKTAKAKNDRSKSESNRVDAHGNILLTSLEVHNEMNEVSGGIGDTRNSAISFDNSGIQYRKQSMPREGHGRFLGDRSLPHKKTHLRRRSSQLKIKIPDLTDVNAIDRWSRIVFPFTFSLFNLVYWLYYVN
GABA-A receptor alpha-4/beta-3/delta, sequence (P48169 whole entry): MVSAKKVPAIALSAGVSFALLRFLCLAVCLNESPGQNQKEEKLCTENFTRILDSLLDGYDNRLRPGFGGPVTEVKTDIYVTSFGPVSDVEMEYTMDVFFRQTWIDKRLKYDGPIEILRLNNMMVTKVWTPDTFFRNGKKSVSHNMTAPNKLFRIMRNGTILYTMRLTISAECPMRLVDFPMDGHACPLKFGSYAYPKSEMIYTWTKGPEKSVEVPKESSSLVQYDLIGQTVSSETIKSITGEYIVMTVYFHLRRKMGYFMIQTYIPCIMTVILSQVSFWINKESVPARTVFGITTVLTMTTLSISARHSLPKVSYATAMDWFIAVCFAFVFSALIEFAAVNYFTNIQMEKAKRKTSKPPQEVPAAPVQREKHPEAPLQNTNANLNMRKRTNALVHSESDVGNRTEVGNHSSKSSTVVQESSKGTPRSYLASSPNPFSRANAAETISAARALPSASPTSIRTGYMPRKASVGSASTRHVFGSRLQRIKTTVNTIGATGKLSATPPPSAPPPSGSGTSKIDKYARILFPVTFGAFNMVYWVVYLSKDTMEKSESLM
GABA-A receptor alpha-4/beta-3/delta, sequence (Q06278 whole entry, further chain): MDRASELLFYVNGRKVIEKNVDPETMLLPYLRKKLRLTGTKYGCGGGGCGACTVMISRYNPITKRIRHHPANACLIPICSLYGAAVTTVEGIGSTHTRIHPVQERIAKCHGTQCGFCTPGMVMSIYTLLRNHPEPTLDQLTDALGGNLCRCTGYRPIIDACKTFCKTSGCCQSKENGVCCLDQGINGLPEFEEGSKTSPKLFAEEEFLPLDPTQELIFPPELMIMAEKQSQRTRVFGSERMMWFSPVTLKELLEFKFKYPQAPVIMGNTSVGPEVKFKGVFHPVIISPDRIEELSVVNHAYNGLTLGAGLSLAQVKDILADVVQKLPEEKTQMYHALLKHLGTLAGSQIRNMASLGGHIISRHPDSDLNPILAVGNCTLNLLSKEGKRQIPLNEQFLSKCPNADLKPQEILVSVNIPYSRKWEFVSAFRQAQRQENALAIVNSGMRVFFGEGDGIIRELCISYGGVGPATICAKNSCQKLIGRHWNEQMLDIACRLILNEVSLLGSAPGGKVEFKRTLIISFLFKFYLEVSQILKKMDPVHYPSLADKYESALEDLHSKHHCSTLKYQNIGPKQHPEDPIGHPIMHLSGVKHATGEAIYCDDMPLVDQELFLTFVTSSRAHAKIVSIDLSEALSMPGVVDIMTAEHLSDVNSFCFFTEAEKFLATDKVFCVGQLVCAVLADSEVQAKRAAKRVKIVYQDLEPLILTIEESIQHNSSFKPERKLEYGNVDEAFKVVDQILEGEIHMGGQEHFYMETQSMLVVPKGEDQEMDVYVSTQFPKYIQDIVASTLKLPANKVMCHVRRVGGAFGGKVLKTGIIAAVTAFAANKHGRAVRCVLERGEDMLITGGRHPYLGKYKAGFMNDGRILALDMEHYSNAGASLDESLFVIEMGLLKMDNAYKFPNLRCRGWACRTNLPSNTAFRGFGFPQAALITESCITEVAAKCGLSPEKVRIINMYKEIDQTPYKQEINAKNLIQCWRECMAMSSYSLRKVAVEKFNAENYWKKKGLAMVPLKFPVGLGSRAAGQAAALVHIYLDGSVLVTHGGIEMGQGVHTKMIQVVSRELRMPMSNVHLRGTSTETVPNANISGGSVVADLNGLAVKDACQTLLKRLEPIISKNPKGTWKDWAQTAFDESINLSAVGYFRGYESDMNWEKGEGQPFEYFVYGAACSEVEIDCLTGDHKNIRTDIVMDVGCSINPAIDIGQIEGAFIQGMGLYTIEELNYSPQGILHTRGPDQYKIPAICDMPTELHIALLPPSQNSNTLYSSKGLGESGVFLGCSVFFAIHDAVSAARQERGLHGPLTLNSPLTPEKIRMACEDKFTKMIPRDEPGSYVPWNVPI
Gamma-aminobutyric acid receptor subunit alpha-4/beta3/delta, sequence (P28472 whole entry): as the sequence (P28472 whole entry) above
Gamma-aminobutyric acid receptor subunit alpha-4/beta3/delta, sequence (P48169 whole entry): as the sequence (P48169 whole entry) above
Gamma-aminobutyric acid receptor subunit alpha-4/beta3/delta, sequence (O14764 whole entry): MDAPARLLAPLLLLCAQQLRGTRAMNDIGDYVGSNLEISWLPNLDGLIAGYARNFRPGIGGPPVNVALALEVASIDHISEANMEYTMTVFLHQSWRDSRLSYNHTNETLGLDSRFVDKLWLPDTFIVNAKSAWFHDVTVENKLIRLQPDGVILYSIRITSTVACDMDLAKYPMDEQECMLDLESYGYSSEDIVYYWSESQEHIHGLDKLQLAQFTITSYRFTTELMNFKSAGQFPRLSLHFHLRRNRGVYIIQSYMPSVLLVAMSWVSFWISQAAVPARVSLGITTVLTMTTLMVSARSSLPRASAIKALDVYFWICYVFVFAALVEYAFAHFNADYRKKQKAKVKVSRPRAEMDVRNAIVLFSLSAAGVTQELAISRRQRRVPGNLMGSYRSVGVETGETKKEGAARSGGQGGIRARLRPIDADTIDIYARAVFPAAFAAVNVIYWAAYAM

As to `C[C@@]1(O)CC[C@H]2[C@H](CC[C@@H]3[C@@H]2CC[C@]2(C)[C@@H](C(=O)Cn4nccn4)CC[C@@H]32)C1`, the IC50 in data set [1] came to 11 nM. Moreover, the values for the EC50 in data set [2] and in data set [4] were 125 nM and 240 nM, respectively. The figures for the Emax in [3] and in data set [5] were 663% and 579%, respectively. Further, the solubility thermodynamic at 1 h, 10 µM in data set [6] was 7.3 µM (≈ 2.81 µg/mL). The results for the CLhep predicted at 10 µM in data set [7], in data set [8] and in [9] were 3.33 mL/min/kg, 45 mL/min/kg and 66.7 mL/min/kg, respectively. The molecule also showed a clearance in [10] of 43.3 mL/min/kg. For the same molecule, the bioavailability came to 25% in [11] and 17% in data set [12]. The results for the Kp at 0.5 h in data set [13] and in data set [14] were 1.8 and 1, respectively.

In the case of `C[C@@]1(O)CC[C@H]2[C@H](CC[C@@H]3[C@@H]2CC[C@]2(C)[C@@H](C(=O)Cn4ccc(C#N)n4)CC[C@@H]32)C1`, the IC50 in data set [1] was 13 nM. Besides, the EC50 in data set [2] was 225 nM; in data set [4], 110 nM. Also, the Emax was found to be 725% in data set [3] and 330% in data set [5]. Besides, the logD at 20 µM in [15] came to 4.6. In data set [6], the solubility thermodynamic at 1 h, 10 µM was 1.9 µM (≈ 0.778 µg/mL). Besides, the CLhep predicted at 10 µM in data set [7] is 5 mL/min/kg; in [8] it was 41.7 mL/min/kg; in data set [9] it was 83.3 mL/min/kg. Moreover, the values for the clearance in [16] and in data set [10] were 25 mL/min/kg and 43.3 mL/min/kg, respectively. The figures for the bioavailability in [11] and in [12] were 56% and 26%, respectively. The Kp at 0.5 h worked out at 1.9 in data set [13] and 1.4 in [14].

For `Cc1cnn(CC(=O)[C@H]2CC[C@H]3[C@@H]4CC[C@@H]5C[C@](C)(O)CC[C@@H]5[C@H]4CC[C@]23C)n1`, in data set [1], the IC50 stood at 21 nM. For the same molecule, the figures for the EC50 in data set [2] and in data set [4] were 1640 nM and 192 nM, respectively. Further, the Emax is 532% in data set [3] and 614% in data set [5]. Further, the solubility thermodynamic at 1 h, 10 µM in data set [6] was found to be 7 µM (≈ 2.8 µg/mL). The CLhep predicted at 10 µM was 5 mL/min/kg in data set [7], 53.3 mL/min/kg in [8] and 81.7 mL/min/kg in data set [9]. The clearance was 50 mL/min/kg in data set [16] and 61.7 mL/min/kg in data set [10]. Besides, the bioavailability is 6% in data set [11] and 39% in [12]. Also, the Kp at 0.5 h in [14] turned out to be 1.

As for `CC(=O)[C@H]1CC[C@H]2[C@@H]3CC[C@H]4C[C@H](O)CC[C@]4(C)[C@H]3CC[C@]12C` [BREXANOLONE], in [1], the IC50 is 22 nM. The EC50 in data set [2] amounted to 237 nM; in [4], 75.5 nM. Further, the Emax in [3] amounted to 510%; in data set [5] it was 430%. The solubility thermodynamic at 1 h, 10 µM in data set [6] stood at 3.3 µM (≈ 1.05 µg/mL). The CLhep predicted at 10 µM was 55 mL/min/kg in data set [8] and 66.7 mL/min/kg in data set [9]. Besides, the clearance in [10] is 200 mL/min/kg. For the same molecule, the bioavailability in data set [11] is 2%. In addition, the Kp at 0.5 h in data set [13] came out at 1.8; in data set [14], 1.9.
